In patent US5068325A, “4,5,7,8-tetrahydro-6H-thiazolo[5,4-d]azepines, their preparation and their use as pharmaceutical compositions” (priority 1988, dated 1991):

Tests used:
[1] = target: T1, serotonin-1A(5-HT1A) receptors (Rattus norvegicus, UniProt P19327); experiment: affinity for serotonin-1A (5-HT1A) receptors by displacement experiments with [3H]-8-OH-DPAT (rat frontal cortex); type: binding; conditions: [3H]-8-OH-DPAT; rat frontal cortex; read-out: 5-HT1A-Ki
T1 construct: The frontal cortex was dissected out; from tissue; host or cells: rat frontal cortex homogenate (Chbb:Thom strain)
T1 sequence (P19327 1-422): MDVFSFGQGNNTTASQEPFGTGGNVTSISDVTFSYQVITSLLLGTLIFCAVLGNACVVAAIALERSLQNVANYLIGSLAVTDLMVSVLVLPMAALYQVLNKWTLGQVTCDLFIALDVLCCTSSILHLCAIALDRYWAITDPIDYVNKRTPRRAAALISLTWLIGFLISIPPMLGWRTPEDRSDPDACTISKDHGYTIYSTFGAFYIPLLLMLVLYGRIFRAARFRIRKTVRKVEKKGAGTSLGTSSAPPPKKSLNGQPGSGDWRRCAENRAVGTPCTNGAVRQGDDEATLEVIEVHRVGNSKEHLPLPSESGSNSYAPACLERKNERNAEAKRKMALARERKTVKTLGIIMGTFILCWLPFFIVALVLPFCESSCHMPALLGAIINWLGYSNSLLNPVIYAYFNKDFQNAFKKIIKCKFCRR
Protocol: 3. […] (Method of S. J. Peroutka, J. Neurochem. 47, 529 (1986), modified according to H. Gozlan et al., J. Receptor Research 7. 195 (1987))
A male rat (Chbb:Thom strain weighing about 200 g) was decapitated. The brain was removed and placed in ice-cold buffer (50 mmol/1 tris-HCl plus hydrochloric acid ad pH =7.4 at ambient temperature). The frontal cortex was dissected out; its moist weight was determined. It was homogenised in 40 times its volume of buffer (Polytron, position 6, 10 seconds), then centrifuged for 20 minutes at 45,000×g in the refrigerated centrifuge. The pellet was washed in 100 times its volume of buffer and centrifuged again as described above. The resulting pellet was resuspended in 40 times its volume of buffer and pre-incubated for 10 minutes at 37° C. Sixty times the volume of buffer were added and centrifuging was carried out as above. The resulting pellet was washed with 100 times the volume of buffer and centrifuged as above. The pellet was resuspended in buffer (0.8 ml/10 mg) and briefly homogenised in the Polytron. This homogenised tissue was cooled in ice until ready for incubation.
Incubation was stopped by rapid filtering through Whatman GF/B filters; rinsing was carried out twice, each time with 5 ml of ice cold buffer (Filter Prep, Messrs. Ismatec). The radioactivity of the filters was determined by liquid scintillation measurement.
Specific binding is obtained from total binding minus non-specific binding.

MPTP monkeys = experiment: post-synaptic dopaminergic activity in MPTP monkeys; type: in vivo, rhesus monkey; conditions: for minimal effective dose: Primates, in Macaca mulatta, im, rhesus monkeys, i.m., read-out: minimum dose (MED) required to alleviate the Parkinson's symptoms
Text: 6. Determining the post-synaptic dopaminergic activity in MPTP monkeys (Modified Method of R. S. Burns et al., Proc. Natl. Acad. Sci. 80. 4546 (1983))
The neurotoxin 1-methyl-4-phenyl-1,2,3,6- tetrahydro-pyridine (MPTP) produces in humans and monkeys an irreversible syndrome which in its clinical, pathological, biochemical and pharmacological appearance is very similar to idiopathic Parkinson's disease (Markey et al., Nature 311, 464 (1984)). The reason for this similarity is that MPTP selectively destroys those dopaminergic nerve cells in the substantia nigra of the brain which are also lost by degenerative processes in Parkinson's disease. There is even some discussion that MPTP or an MPTP-like substance might be formed in the body and trigger Parkinson's disease (S. H. Snyder, Nature 311, 514 (1984)). Possibly because of the specific MPTP metabolism, the clinical formation of the MPTP-induced Parkinson syndrome has hitherto been detected only in humans and monkeys. The MPTP model produced in the rhesus monkey is therefore exceptionally suitable for testing the activity of post-synaptically acting dopamine agonists. For this purpose, rhesus monkeys were given MPTP in overall doses of up to about 6 mg/kg of body weight, until the following symptoms appeared: The animals were akinetic and unable to take water and food.
It is clear that with the compounds according to the invention there is no sedative effect or ataxia at a dosage which is several times the MED, which can be put down to the absence of a corresponding activity mediated by the α2- receptors.

dopamine D2-receptors = dopamine D2-receptors (Rattus norvegicus, UniProt P61169); experiment: affinity for dopamine D2-receptors by displacement experiments with [3H]-spiperone (rat striatum membranes); type: binding; conditions: for Ki: [3H]-spiperone, high-affinity form of the dopamine receptor; for α2-IC50 / D2-Ki: relative affinity for dopamine-D2 receptors compared with α2-adrenoceptors, the higher, the higher the D2/α2 selectivity
Chain of dopamine D2-receptors (P61169 whole entry): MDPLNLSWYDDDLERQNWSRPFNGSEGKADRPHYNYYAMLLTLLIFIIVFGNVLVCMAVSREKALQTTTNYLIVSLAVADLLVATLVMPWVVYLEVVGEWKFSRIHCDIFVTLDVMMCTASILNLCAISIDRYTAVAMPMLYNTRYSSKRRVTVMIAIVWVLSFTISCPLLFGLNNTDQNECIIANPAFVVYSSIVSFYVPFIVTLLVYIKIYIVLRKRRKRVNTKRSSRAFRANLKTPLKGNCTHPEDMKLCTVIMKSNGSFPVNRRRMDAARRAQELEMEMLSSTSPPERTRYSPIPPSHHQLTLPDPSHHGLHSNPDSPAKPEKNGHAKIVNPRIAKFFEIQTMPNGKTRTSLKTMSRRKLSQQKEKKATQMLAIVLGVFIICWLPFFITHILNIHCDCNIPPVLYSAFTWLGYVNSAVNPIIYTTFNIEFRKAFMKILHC

| Compound | Ki [1] [µM] | Duration of activity (MPTP monkeys; 0.03 mg/kg i.m. (MED)) [h] | effect on MPTP-induced symptoms (MPTP monkeys; MPTP-treated rhesus monkeys) | minimal effective dose (MPTP monkeys) [mg/kg] | Ki (dopamine D2-receptors) [nM] | α2-IC50 / D2-Ki (dopamine D2-receptors) | Duration of activity (MPTP monkeys; 0.05 mg/kg i.m. (MED)) [h] | Side effects (MPTP monkeys; 0.05 mg/kg i.m. (MED)) | Duration of activity (MPTP monkeys; 0.50 mg/kg i.m.) [h] | Duration of activity (MPTP monkeys; 0.15 mg/kg i.m.) [h] |
| --- | --- | --- | --- | --- | --- | --- | --- | --- | --- | --- |
| C=CCN1CCc2nc(N)sc2CC1 [Compound A, reference compound] | 4.69 | 0.5 to 1 | temporary cessation of this phenomenon | 0.03 | 5 | 4.8 |  |  |  |  |
| N#Cc1ccc(C=CCN2CCc3nc(N)sc3CC2)cc1 [Example 14b, 2-Amino-6-(3-(4-cyano-phenyl)allyl)-4,5,7,8-tetrahydro-6H-thiazolo[5,4-d]azepine] | 7.8 |  |  | 0.05 | 2.6 | 192 | 2.0 to 5 | none | > 5 |  |
| Nc1nc2c(s1)CCN(CC=Cc1ccccc1N1CCCCC1)CC2 [Example 11p, 2-Amino-6-(3-(2-(1-piperidino)phenyl)-2-propen-1-yl)-4,5,7,8-tetrahydro-6H-thiazolo[5,4-d]azepine] | 1.77 |  |  |  | 9.9 | 303 |  |  |  |  |
| Nc1nc2c(s1)CCN(Cc1ccc(Cl)cc1)CC2 [Compound B, reference compound] |  |  |  |  | 13 | 31.5 |  |  |  | 5 |
| Nc1nc2c(s1)CCN(CC=Cc1cccc(OCc3ccccc3)c1)CC2 [Example 4y, 2-Amino-6-(3-(3-benzyloxy-phenyl)allyl)-4,5,7,8-tetrahydro-6H-thiazolo[5,4-d]azepine] | 23 |  |  |  | 0.73 | 410 |  |  |  |  |
| Nc1nc2c(s1)CCN(CC=Cc1cc3ccccc3cn1)CC2 [Example 24a, 2-Amino-6-(3-(3-isoquinolinyl)allyl)-4,5,7,8-tetrahydro-6H-thiazolo[5,4-d]azepine] | 3.5 |  |  |  | 1.7 | 529 |  |  |  |  |
| Nc1nc2c(s1)CCN(CC=Cc1cccc3ccccc13)CC2 [Example 4t, 2-Amino-6-(3-(1-naphthyl)allyl)-4,5,7,8-tetrahydro-6H-thiazolo[5,4-d]azepine] | 0.35 |  |  |  | 3.1 | 148 |  |  |  |  |
| Nc1nc2c(s1)CCN(CC=Cc1nccc3ccccc13)CC2 [Example 7a, 2-Amino-6-(3-(1-isoquinolinyl)allyl)-4,5,7,8-tetrahydro-6H-thiazolo[5,4-d]azepine] | 1.1 |  |  |  | 0.92 | 3370 |  |  |  |  |
